Assay results as given in patent US20110053916A1 (Vertex Pharmaceuticals Incorporated, priority 2009, published 2011).

Columns and labels:
[1] = biological target: T1, PknB (Mycobacterium tuberculosis, UniProt P9WI81); test: biochemical; design: species or system M. tuberculosis; settings: 3 nM PknB, 6 uM GarA, 3 μM ATP, 30 min, competitive tight-binding fit, several symbols in a cell = repeat determinations; for Ki: read-out: Ki Values
T1 construct: made in house

[2] = tested on: Mycobacterium tuberculosis H37Ra; test: Mycobacterium tuberculosis growth inhibition assay (microtiter dilution, resazurin reduction); assay type: cell-based; settings: 7H9 broth, 9 days + 24 h resazurin, lowest concentration inhibiting resazurin reduction by >70%, several symbols in a cell = repeat determinations
Method: Compounds were screened for their ability to inhibit the growth of Mycobacterium tuberculosis H37Ra using a standard microtiter dilution method with reduction of the dye resazurin as an indicator of growth. The growth assay was carried out in standard Mycobacterium liquid growth medium, 7H9Broth (BD Biosciences, Franklin Lakes, N.J.) supplemented with 10% ADC enrichment (BD Biosciences, Franklin Lakes, N.J.). The medium was inoculate with ˜1×10^6 cells/milliliter of Mycobacterium tuberculosis H37Ra grown on a the surface of a growth medium solid medium (7H11 agar [BD Biosciences, Franklin Lakes, N.J.] supplemented with 10% OADC enrichment [BD Biosciences, Franklin Lakes, N.J.]).
Two-fold serial dilutions (either 7 or 11-step series) of test compounds in DMSO were dispensed into 96-well assay plates (sterile, black sided, clear bottom wells) in a volume of 1 microliter. One microliter of DMSO was dispensed into a control well at the end of each series. One-hundred microliters of the bacterial cell suspension in growth medium was dispensed into each test well containing a DSMO solution of compound. The assay plates were covered with a fitted lid and incubated at 37° C. in a humidified chamber for 9 days. On the ninth day 30 microliters of a 0.01% solution of resazurin (Sigma Chemical Co., St. Louis, Mo.) in distilled water was added to each well and the baseline fluorescence of resazurin was determined by measuring well fluorescence at an excitation wavelength of 492 nm and an emission wavelength of 595 nm on a Spectrafluor Plus (Tecan, Durham, N.C.) instrument. The assay plates were returned to the incubation chamber for 24 hours. After 24 hours, the fluorescence of the wells (resulting from the reduction of resazurin dye) was measured at an excitation wavelength of 492 nm and an emission wavelength of 595 nm on the Spectrafluor Plus instrument. The minimum inhibitory concentration (MIC) was called as the lowest concentration of compound that inhibited the reduction of resazurin by >70%, as compared to the DMSO (untreated) control wells. MIC values are represented as the following values: • A* <1.6 μM • A 1.6 μM<12.5 μM • B** 12.5 μM-25.0 μM • B* 25.0 μM-50.0 μM • B 50.0 μM-100.0 μM • C >100.0 μM

T1 sequence (P9WI81 whole entry): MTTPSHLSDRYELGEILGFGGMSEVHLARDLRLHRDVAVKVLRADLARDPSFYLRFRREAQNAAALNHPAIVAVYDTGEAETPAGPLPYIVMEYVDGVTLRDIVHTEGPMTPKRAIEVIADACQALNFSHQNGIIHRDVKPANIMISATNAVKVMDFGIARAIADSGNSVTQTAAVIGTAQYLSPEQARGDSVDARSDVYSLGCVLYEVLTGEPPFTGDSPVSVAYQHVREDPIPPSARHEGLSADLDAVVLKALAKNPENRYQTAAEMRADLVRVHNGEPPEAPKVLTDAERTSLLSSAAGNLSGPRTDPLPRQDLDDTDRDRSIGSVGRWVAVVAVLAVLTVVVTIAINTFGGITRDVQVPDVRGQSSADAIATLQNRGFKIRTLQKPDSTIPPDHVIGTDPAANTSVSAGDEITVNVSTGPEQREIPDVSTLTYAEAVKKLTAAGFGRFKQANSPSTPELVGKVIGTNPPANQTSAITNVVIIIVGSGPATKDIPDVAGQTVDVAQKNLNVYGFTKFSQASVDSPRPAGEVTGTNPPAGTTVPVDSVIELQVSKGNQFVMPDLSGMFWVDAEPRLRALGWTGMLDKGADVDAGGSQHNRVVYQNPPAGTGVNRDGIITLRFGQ

Row | SMILES | Ki [1] [nM] | MIC values [2] | Ki Values [1]
1 | C#Cc1c(C)nc(-c2ccc(S(=O)(=O)NC(C)(C)C)s2)nc1Nc1cc(C2CC2)[nH]n1 [Compound 268, 5-[4-[(5-cyclopropyl-1H-pyrazol-3-yl)amino]-5-ethynyl-6-methyl-pyrimidin-2-yl]-N-tert-butyl-thiophene-2-sulfonamide] | 10 to 50 | B++ | –
2 | C=CCCC(=O)c1ncc(Cl)c(Nc2cc(C3CC3)[nH]n2)n1 [Compound 256, 1-[5-chloro-4-[(5-cyclopropyl-1H-pyrazol-3-yl)amino]-pyrimidin-2-yl]pent-4-en-1-one] | 500 to 1000 | B+ | –
3 | CC(C)(C)c1cc(Nc2nc(-c3ccc(S(N)(=O)=O)s3)ncc2Cl)n[nH]1 [Compound 236, 5-(4-(5-tert-butyl-1H-pyrazol-3-ylamino)-5-chloropyrimidin-2-yl)thiophene-2-sulfonamide] | 100 to 500 | A+, A, A, A, A | –
4 | OC/C=C/c1cnc(-c2ccccc2)nc1Nc1cc(C2CC2)[nH]n1 [Compound 53, (E)-3-(4-(5-cyclopropyl-1H-pyrazol-3-ylamino)-2-phenylpyrimidin-5-yl)prop-2-en-1-ol] | – | B+ | A, B**, B**
5 | CC(=O)c1cccc(-c2nccc(Nc3cc(C4CC4)[nH]n3)n2)c1 [Compound 317, 1-[3-[4-[(5-cyclopropyl-1H-pyrazol-3-yl)amino]pyrimidin-2-yl]phenyl]ethanone] | 10 to 50 | B+ | –
6 | CC(C)(C)NS(=O)(=O)c1ccc(-c2ncc(C#CCO)c(Nc3cc(C4CC4)[nH]n3)n2)s1 [Compound 216, N-tert-butyl-5-(4-(5-cyclopropyl-1H-pyrazol-3-ylamino)-5-(3-hydroxyprop-1-ynyl)pyrimidin-2-yl)thiophene-2-sulfonamide] | 1000 to 2000 | B+ | –
7 | C#Cc1cnc(-c2ccc([C@H](C)O)s2)nc1Nc1cc(C2CC2)n[nH]1 [Compound 198, (S)-1-(5-(4-(3-cyclopropyl-1H-pyrazol-5-ylamino)-5-ethynylpyrimidin-2-yl)thiophen-2-yl)ethanol] | 1 to 10 | A, A, A, B++ | –
8 | Cc1cnc(-c2ccc([C@H](C)O)s2)nc1Nc1cc(C2CC2)[nH]n1 [Compound 146, (S)-1-(5-(4-(5-cyclopropyl-1H-pyrazol-3-ylamino)-5-methylpyrimidin-2-yl)thiophen-2-yl)ethanol] | – | B++ | A*, A**
9 | CC(C)c1cc(Nc2nc(-c3ccc(S(N)(=O)=O)s3)ncc2Cl)n[nH]1 [Compound 225, 5-[5-chloro-4-[(5-isopropyl-1H-pyrazol-3-yl)amino]-pyrimidin-2-yl]thiophene-2-sulfonamide] | 1 to 10 | B++ | –
10 | NS(=O)(=O)c1ccc(-c2nc(Nc3cc(C4CC4)n[nH]3)cc(N3CCCC3)n2)s1 [Compound 284, 5-[4-[(5-cyclopropyl-2H-pyrazol-3-yl)amino]-6-pyrrolidin-1-yl-pyrimidin-2-yl]thiophene-2-sulfonamide] | 100 to 500 | B++ | –
11 | NC(=O)c1ncc(Cl)c(Nc2cc(C3CC3)[nH]n2)n1 [Compound 303, 5-chloro-4-[(5-cyclopropyl-1H-pyrazol-3-yl)amino]-pyrimidine-2-carboxamide] | 2000 to 4000 | B+ | –
12 | CC(C)(C)NS(=O)(=O)c1ccc(-c2ncc(Cl)c(Nc3cc(C4CCN(C(=O)OCc5ccccc5)C4)n[nH]3)n2)s1 (centres unmarked) [Compound 257, benzyl 3-[5-[[5-chloro-2-[5-(tert-butylsulfamoyl)-2-thienyl]-pyrimidin-4-yl]amino]-1H-pyrazol-3-yl]pyrrolidine-1-carboxylate] | > 4000 | B++ | –
13 | CC(=O)NCc1ccc(-c2ncc(Cl)c(Nc3cc(C4CC4)n[nH]3)n2)s1 [Compound 136, N-((5-(5-chloro-4-(3-cyclopropyl-1H-pyrazol-5-ylamino)pyrimidin-2-yl)thiophen-2-yl)methyl)acetamide] | 10 to 50 | B+ | –
14 | C#Cc1cnc(-c2ccc(S(=O)(=O)NCCO)s2)nc1Nc1cc(C2CC2)[nH]n1 [Compound 108, 5-(4-(3-cyclopropyl-1H-pyrazol-5-ylamino)-5-ethynylpyrimidin-2-yl)-N-(2-hydroxyethyl)thiophene-2-sulfonamide] | 1 to 10 | B+ | –
15 | NS(=O)(=O)c1ccc(-c2ncc(C(F)(F)F)c(Nc3cc(C4CC4)[nH]n3)n2)s1 [Compound 159, 5-(4-(5-cyclopropyl-1H-pyrazol-3-ylamino)-5-(trifluoromethyl)pyrimidin-2-yl)thiophene-2-sulfonamide] | 100 to 500 | B+ | –
16 | C#Cc1cnc(-c2ccc(S(=O)(=O)NC(C)=O)s2)nc1Nc1cc(C2CC2)[nH]n1 [Compound 192, N-(5-(4-(5-cyclopropyl-1H-pyrazol-3-ylamino)-5-ethynylpyrimidin-2-yl)thiophen-2-ylsulfonyl)acetamide] | 100 to 500 | B, C | –
17 | CC(O)c1cccc(-c2nccc(Nc3cc(C4CC4)[nH]n3)n2)c1 (centres unmarked) [Compound 316, 1-[3-[4-[(5-cyclopropyl-1H-pyrazol-3-yl)amino]pyrimidin-2-yl]phenyl]ethanol] | 10 to 50 | B+ | –
18 | O=S(=O)(c1ccc(-c2ncc(Cl)c(Nc3cc(C4CC4)[nH]n3)n2)s1)N1CCCC1 [Compound 98, 5-chloro-N-(5-cyclopropyl-1H-pyrazol-3-yl)-2-(5-pyrrolidin-1-ylsulfonyl-2-thienyl)-pyrimidin-4-amine] | 1 to 10 | B, C | –
19 | NC(=S)c1ncc(Cl)c(Nc2cc(C3CC3)[nH]n2)n1 [Compound 305, 5-chloro-4-[(5-cyclopropyl-1H-pyrazol-3-yl)amino]-pyrimidine-2-carbothioamide] | 500 to 1000 | A, B++ | –
20 | CC(O)c1ccc(-c2nccc(Nc3cc(C4CC4)[nH]n3)n2)cc1 (centres unmarked) [Compound 312, 1-[4-[4-[(5-cyclopropyl-1H-pyrazol-3-yl)amino]pyrimidin-2-yl]phenyl]ethanol] | 10 to 50 | B+ | –
21 | Fc1cnc(-c2cccs2)nc1Nc1cc(C2CC2)[nH]n1 [Compound 41, N-(5-cyclopropyl-1H-pyrazol-3-yl)-5-fluoro-2-(thiophen-2-yl)pyrimidin-4-amine] | 10 to 50 | B+ | –
22 | C#Cc1cnc(-c2ccc(C(C)=O)s2)nc1Nc1cc(C2CC2)[nH]n1 [Compound 111, 1-(5-(4-(5-Cyclopropyl-1H-pyrazol-3-ylamino)-5-ethynylpyrimidin-2-yl)thiophen-2-yl)ethanone] | – | B++, B | A**, A*
23 | NCCNS(=O)(=O)c1cccc(-c2ncc(Cl)c(Nc3cc(C4CC4)[nH]n3)n2)c1 [Compound 138, N-(2-aminoethyl)-3-[5-chloro-4-[(5-cyclopropyl-1H-pyrazol-3-yl)amino]-pyrimidin-2-yl]-benzenesulfonamide] | 10 to 50 | B, C | –
24 | O=S(=O)(NC1CC1)c1ccc(Nc2nccc(Nc3cc(C4CC4)n[nH]3)n2)cc1 [Compound 90, N-cyclopropyl-4-[[4-[(5-cyclopropyl-2H-pyrazol-3-yl)amino]pyrimidin-2-yl]amino]-benzenesulfonamide] | 10 to 50 | B+ | –
25 | NS(=O)(=O)c1ccc(-c2nc(Nc3cc(C4CC4)n[nH]3)cc(N3CCOCC3)n2)s1 [Compound 290, 5-[4-[(5-cyclopropyl-2H-pyrazol-3-yl)amino]-6-morpholino-pyrimidin-2-yl]thiophene-2-sulfonamide] | 500 to 1000 | B++ | –
26 | CS(=O)(=O)Nc1cccc(-c2ncc(Cl)c(Nc3cc(C4CC4)[nH]n3)n2)c1 [Compound 107, N-[3-[5-chloro-4-[(5-cyclopropyl-1H-pyrazol-3-yl)amino]pyrimidin-2-yl]phenyl]methanesulfonamide] | 50 to 100 | B++, B+ | –
27 | CNc1cc(Nc2cc(C3CC3)n[nH]2)nc(-c2ccc(S(N)(=O)=O)s2)n1 [Compound 279, 5-[4-[(5-cyclopropyl-2H-pyrazol-3-yl)amino]-6-methylamino-pyrimidin-2-yl]thiophene-2-sulfonamide] | 1000 to 2000 | B++ | –
28 | NS(=O)(=O)c1ccc(-c2nccc(Nc3cc(C4CC4)[nH]n3)n2)cn1 [Compound 301, 5-[4-[(5-cyclopropyl-1H-pyrazol-3-yl)amino]pyrimidin-2-yl]pyridine-2-sulfonamide] | 50 to 100 | B+ | –
